Measured values as given in paper PMC6039181, “An expanded allosteric network in PTP1B by multitemperature crystallography, fragment screening, and covalent tethering” (eLife, 2018).

Target: T1, PTP1B (Homo sapiens, UniProt P18031, C32S/C92V/K197C)
T1 construct: gene PTPN1; residues 1–321
T1 sequence (P18031 1-321 C32S/C92V/K197C): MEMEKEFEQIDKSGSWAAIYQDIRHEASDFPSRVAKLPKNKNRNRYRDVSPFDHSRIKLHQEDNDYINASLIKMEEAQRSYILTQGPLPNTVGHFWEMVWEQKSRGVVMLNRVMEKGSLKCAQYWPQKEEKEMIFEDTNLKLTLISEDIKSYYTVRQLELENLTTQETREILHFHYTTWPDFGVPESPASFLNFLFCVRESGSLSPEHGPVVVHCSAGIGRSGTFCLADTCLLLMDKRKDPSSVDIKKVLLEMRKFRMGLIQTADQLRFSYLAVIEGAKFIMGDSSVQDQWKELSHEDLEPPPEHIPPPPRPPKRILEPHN
Assay: crystal structure of tethered complex ([…] Å); mass-spectrometry tethering EC50 […]; pNPP inhibition Ki
Type: biochemical

Question: For `CN(C)CCSSCC(=O)Nc1cc(-c2ccc(F)cc2F)ccc1O` [compound 2, 2], which Ki is on record?
Answer: 7.1 ± 1.1 µM
